# Patent US20080261895A1 (Wyeth, priority 2006, published 2008)
# Where “and” joins values, the source holds several entries; their conditions need not be identical. Identical values can stand only once.
# Assays:
# [1] = Fecal excretion and metabolite profile by radiochromatography, rats; type: in vivo, Sprague Dawley rats; details: for % of the radioactive dose excreted in feces: rats
# Method: Urine and feces were collected separately on dry ice from three animals per sex. Collections were from 0-8 and 8-24 hours for male rats and 0-8 hours for female rats. Fecal samples were homogenized in approximately five volumes (v/w) of water. Aliquots of approximately 0.4 grams of the homogenate were placed into combusto-cones, weighed and allowed to air dry. These samples were then oxidized. The remaining urine samples and fecal homogenates were stored at −70° C. until metabolite analysis.
# Fecal homogenates collected from male rats between 8 and 24 hours post-dose were analyzed for metabolite profiles. Aliquots of approximately 1 gram of fecal homogenate were centrifuged at 3500 rpm and 4° C. in a Sorvall Super 21 centrifuge for 10 minutes. The supernatant was transferred to a clean tube. The residue was re-suspended with 1 mL of water:acetonitrile (1:1, v:v) and centrifuged as described above. The resulting supernatant was combined with the original supernatant and the residue re-suspended with 1 mL of acetonitrile. The suspension was centrifuged as described above, and the supernatants were combined and analyzed for radioactivity. The supernatants were then concentrated under a stream of nitrogen in a Turbo Vap to remove the acetonitrile. An aliquot of the aqueous residue was analyzed by HPLC for profiling. Selected samples were also analyzed by LC/MS to characterize the radioactive peaks.
# Chromatographic analyses were performed with a Waters Alliance model 2690 HPLC system (Waters Corp., Milford, Mass.). It was equipped with a built-in autosampler and was in-line with a model 2487 tunable UV detector, set to monitor 225 nm, and a FloOne β Model 525 radioactivity flow detector (Perkin Elmer) with a 250 μL LQTR flow cell. The flow rate of Ultima Flow M scintillation fluid was 1 mL/min, providing a mixing ratio of scintillation cocktail to mobile phase of 5:1. Separation of the metabolite peaks was accomplished on a Phenomenex Luna C18(2) column, 150×2.0 mm, 5 micron (Phenomenex, Torrance, Calif.), using a linear gradient of two mobile phases, A and B. Mobile phase A was 10 mM ammonium acetate, pH 6.0, and mobile phase B was acetonitrile. The flow rate was 0.2 mL/min.
# [2] = Stability of [14C]DVS in control rat urine; type: in vitro ADME; details: 37° C.
# Method: (§1) The stability of [^14C]DVS in rat urine was determined. [^14C]DVS (0.13 mg/mL, final concentration) was added to control rat urine and incubated in a shaking water bath set to 37° C. Aliquots (0.5 mL) were removed at 0, 1, 4, 8 and 24 hours. Samples were extracted as described above and radiopurity assayed by HPLC analysis.
# [3] = Stability of [14C]DVS in control dog plasma; type: in vitro ADME; details: 37° C., up to 24 hours
# Method: as §1, with “dog plasma” for “rat urine”, “(0.012” for “(0.13”, “Duplicate aliquots (1” for “Aliquots (0.5”, “8,” for “8”
# [4] = Stability of [14C]DVS in control dog urine; type: in vitro ADME; details: 37° C., up to 24 hours
# Method: as §1, with “in dog” for “in rat”, “[^14C]DVS (0.025” for “[^14C]DVS (0.13”, “control dog” for “control rat”, “Aliquots (1” for “Aliquots (0.5”
# dog liver microsomes = experiment: Glucuronidation in dog liver microsomes; type: in vitro ADME; details: dog liver microsomes 1 mg/mL, 100 μM, 30 minutes; in the presence of only UDPGA
# Method: To confirm the site of glucuronidation of DVS, incubations were performed using dog liver microsomes. These incubations compared the glucuronidation of DVS to venlafaxine. […] Reactions were initiated by the addition of UDPGA (final concentration 1 mM). An additional set of incubations was performed for venlafaxine with UDPGA and an NADPH generating system. […] Reactions were stopped by the addition of 500 μL of acetonitrile and processed as described above. Samples were analyzed by LC/MS.
structure (smiles),measurement,setting,value
"CN(C)CC(c1ccc(O)cc1)C1(O)CCCCC1.O=C(O)CCC(=O)O (stereo not shown) [DVS, O-desmethylvenlafaxine succinate]","Radioactivity as % of Dose in feces, Mean ± S.D.","[1]; male rats, feces 8-24 hours post-dose, single oral 20 mg/kg",9.6 ± 1.1%
same,"Compounds Detected by Radiochromatography in feces, percent of total peaks, individual rats","[1]; male rats, feces 8-24 hours post-dose, single oral 20 mg/kg, 20 mg/kg",19.6% and 20.8% and 22.0%
same,"Radioactivity as % of Dose in feces, individual rats","[1]; male rats, feces 8-24 hours post-dose, single oral 20 mg/kg, listed as [^14C]DVS, 20 mg/kg",10.8% and 9.5% and 8.5^b %
same,% of the radioactive dose excreted in feces,[1]; 0-8 hour fecal samples,Less than 0.1%
same,% of the radioactive dose excreted in feces,[1]; within 24 hours of dosing,approximately 10%
same,radiopurity of [14C]DVS in rat urine,[2]; all time points up to 24 hours,greater than 99.5%
same,Stability of [14C]DVS in control rat urine,[2]; up to 24 hours,stable
same,Stability of [14C]DVS in control dog plasma,[3],stable
same,Stability of [14C]DVS in control dog urine,[4],stable
same,glucuronidation,dog liver microsomes,observed
